Data as given in PubChem BioAssay AID1745844 (Carcinogenic Potency Database (CPDB), 2022).
“And” between values parts separate entries of the source, which are not always exact repeats. Equal values may be shown once. The source made the active and inactive calls. No rule for the calls is given here.

System: rodent lifetime carcinogenesis bioassay, tumor incidence TD50
Assay: carcinogenic potency in animals, long-term in vivo studies, CPDB compilation (AID 1745844)
Conditions: rat

`ClCCl` was tested, and the carcinogen call (strain Fischer 344, females, in drinking water, site: liver, lesion: hepatocellular carcinoma, dosed 78 weeks, study length 104 weeks) was “negative (inactive)”, the TD50 (strain Fischer 344, females, in drinking water, site: liver, lesion: hepatocellular carcinoma, dosed 104 weeks, study length 104 weeks) was 3630 mg/kg/day (inactive) and the carcinogen call (strain Fischer 344, females, in drinking water, site: liver, lesion: neoplastic nodule, dosed 78 weeks, study length 78 weeks) was “negative (inactive)”. For the same compound, the TD50 (strain Fischer 344, females, in drinking water, site: liver, lesion: neoplastic nodule, dosed 78 weeks, study length 104 weeks) was 1540 mg/kg/day (inactive), the TD50 (strain Fischer 344, females, in drinking water, site: liver, lesion: neoplastic nodule, dosed 104 weeks, study length 104 weeks) was 2340 mg/kg/day (inactive) and the TD50 (strain Fischer 344, females, in drinking water, site: liver, lesion: several types, types named in the paper, dosed 78 weeks, study length 104 weeks) was 1540 mg/kg/day (inactive). For the same compound, the TD50 (strain Fischer 344, females, in drinking water, site: liver, lesion: several types, types named in the paper, dosed 104 weeks, study length 104 weeks) was 1430 mg/kg/day (inactive), the TD50 (strain Fischer 344, females, inhaled, site: all sites, lesion: mononuclear-cell leukemia, dosed 102 weeks, study length 104 weeks) was 1280 mg/kg/day and the TD50 (strain Fischer 344, females, inhaled, site: any site (literature study), lesion: several types, types named in the paper, dosed 102 weeks, study length 104 weeks) was 501 mg/kg/day. For the same compound, the TD50 (strain Fischer 344, females, inhaled, site: liver, lesion: hepatocellular adenoma + hepatocellular carcinoma + neoplastic nodule, dosed 102 weeks, study length 104 weeks) was 4270 mg/kg/day, the TD50 (strain Fischer 344, females, inhaled, site: liver, lesion: hepatocellular carcinoma + neoplastic nodule, dosed 102 weeks, study length 104 weeks) was 4270 mg/kg/day and the TD50 (strain Fischer 344, females, inhaled, site: mammary gland, lesion: adenocarcinoma, NOS + adenoma, NOS + fibroadenoma + mixed tumor, malignant, dosed 102 weeks, study length 104 weeks) was 670 mg/kg/day. It also gave a TD50 (strain Fischer 344, females, inhaled, site: mammary gland, lesion: adenocarcinoma, NOS + adenoma, NOS + fibroadenoma, dosed 102 weeks, study length 104 weeks) of 630 mg/kg/day, a TD50 (strain Fischer 344, females, inhaled, site: mammary gland, lesion: adenoma, NOS + fibroadenoma, dosed 102 weeks, study length 104 weeks) of 598 mg/kg/day and a TD50 (strain Fischer 344, females, inhaled, site: mammary gland, lesion: fibroadenoma, dosed 102 weeks, study length 104 weeks) of 632 mg/kg/day. For the same compound, the carcinogen call (strain Fischer 344, males, in drinking water, site: liver, lesion: hepatocellular carcinoma, dosed 78 weeks, study length 104 weeks) was “negative (inactive)”, the carcinogen call (strain Fischer 344, males, in drinking water, site: liver, lesion: hepatocellular carcinoma, dosed 104 weeks, study length 104 weeks) was “negative (inactive)” and the carcinogen call (strain Fischer 344, males, in drinking water, site: liver, lesion: neoplastic nodule, dosed 78 weeks, study length 78 weeks) was “negative (inactive)”. For the same compound, the TD50 (strain Fischer 344, males, in drinking water, site: liver, lesion: neoplastic nodule, dosed 78 weeks, study length 104 weeks) was 1610 mg/kg/day (inactive), the carcinogen call (strain Fischer 344, males, in drinking water, site: liver, lesion: neoplastic nodule, dosed 104 weeks, study length 104 weeks) was “negative (inactive)” and the TD50 (strain Fischer 344, males, in drinking water, site: liver, lesion: several types, types named in the paper, dosed 78 weeks, study length 104 weeks) was 3660 mg/kg/day (inactive). For the same compound, the carcinogen call (strain Fischer 344, males, in drinking water, site: liver, lesion: several types, types named in the paper, dosed 104 weeks, study length 104 weeks) was “negative (inactive)”, the TD50 (strain Fischer 344, males, inhaled, site: any site (literature study), lesion: several types, types named in the paper, dosed 102 weeks, study length 104 weeks) was 539 mg/kg/day and the TD50 (strain Fischer 344, males, inhaled, site: mammary gland + subcutaneous tissue, lesion: adenoma, NOS + fibroadenoma + fibroma, dosed 102 weeks, study length 104 weeks) was 917 mg/kg/day. The TD50 (strain Fischer 344, males, inhaled, site: mammary gland, lesion: adenoma, NOS + fibroadenoma, dosed 102 weeks, study length 104 weeks) was 1640 mg/kg/day, the TD50 (strain Fischer 344, males, inhaled, site: mammary gland, lesion: fibroadenoma, dosed 102 weeks, study length 104 weeks) was 1770 mg/kg/day and the TD50 (strain Fischer 344, males, inhaled, site: multiple organs + tunica vaginalis, lesion: mesothelioma, NOS + mesothelioma, malignant, dosed 102 weeks, study length 104 weeks) was 1440 mg/kg/day. It also gave a TD50 (strain Fischer 344, males, inhaled, site: subcutaneous tissue, lesion: fibroma + sarcoma, NOS, dosed 102 weeks, study length 104 weeks) of 1990 mg/kg/day, a TD50 (strain Fischer 344, males, inhaled, site: subcutaneous tissue, lesion: fibroma, dosed 102 weeks, study length 104 weeks) of 2180 mg/kg/day and a TD50 (strain Fischer 344, males, inhaled, site: tunica vaginalis, lesion: mesothelioma, NOS + mesothelioma, malignant, dosed 102 weeks, study length 104 weeks) of 1640 mg/kg/day. For the same compound, the TD50 (strain Fischer 344, males, inhaled, site: tunica vaginalis, lesion: mesothelioma, malignant, dosed 102 weeks, study length 104 weeks) was 4310 mg/kg/day, the TD50 (strain Sprague-Dawley Spartan, females, inhaled, site: liver, lesion: Kupffer-cell sarcoma, dosed 104 weeks, study length 104 weeks) was 9340 mg/kg/day (inactive) and the carcinogen call (strain Sprague-Dawley Spartan, females, inhaled, site: liver, lesion: hepatocellular carcinoma, dosed 52 weeks, study length 104 weeks) was “negative (inactive)”. The TD50 (strain Sprague-Dawley Spartan, females, inhaled, site: liver, lesion: hepatocellular carcinoma, dosed 104 weeks, study length 104 weeks) was 9520 mg/kg/day (inactive), the carcinogen call (strain Sprague-Dawley Spartan, females, inhaled, site: liver, lesion: neoplastic nodule, dosed 52 weeks, study length 104 weeks) was “negative (inactive)” and the carcinogen call (strain Sprague-Dawley Spartan, females, inhaled, site: liver, lesion: neoplastic nodule, dosed 104 weeks, study length 104 weeks) was “negative (inactive)”. The TD50 (strain Sprague-Dawley Spartan, females, inhaled, site: mammary gland, lesion: adenocarcinoma, dosed 52 weeks, study length 104 weeks) was 1140 mg/kg/day (inactive), the carcinogen call (strain Sprague-Dawley Spartan, females, inhaled, site: mammary gland, lesion: adenocarcinoma, dosed 104 weeks, study length 104 weeks) was “negative (inactive)” and the TD50 (strain Sprague-Dawley Spartan, females, inhaled, site: mammary gland, lesion: benign tumor, dosed 52 weeks, study length 104 weeks) was 38.1 mg/kg/day. For the same compound, the TD50 (strain Sprague-Dawley Spartan, females, inhaled, site: mammary gland, lesion: benign tumor, dosed 104 weeks, study length 104 weeks) was 4430 mg/kg/day and 1550 mg/kg/day, the TD50 (strain Sprague-Dawley Spartan, females, inhaled, site: mammary gland, lesion: fibroadenoma, dosed 52 weeks, study length 104 weeks) was 37.7 mg/kg/day and the TD50 (strain Sprague-Dawley Spartan, females, inhaled, site: mammary gland, lesion: fibroadenoma, dosed 104 weeks, study length 104 weeks) was 631 mg/kg/day. For the same compound, the carcinogen call (strain Sprague-Dawley Spartan, males, inhaled, site: liver, lesion: one or several types, types not named, dosed 86 weeks, study length 86 weeks) was “negative (inactive)”, the TD50 (strain Sprague-Dawley Spartan, males, inhaled, site: mammary gland, lesion: benign tumor, dosed 104 weeks, study length 104 weeks) was 5080 mg/kg/day and the TD50 (strain Sprague-Dawley Spartan, males, inhaled, site: salivary gland, lesion: several types, types named in the paper, dosed 104 weeks, study length 104 weeks) was 4260 mg/kg/day. For the same compound, the TD50 (strain Sprague-Dawley, females, by gavage, site: any site (literature study), lesion: malignant tumor, dosed 64 weeks, study length 104 weeks) was 1740 mg/kg/day, the TD50 (strain Sprague-Dawley, females, by gavage, site: mammary tissue, wider than the gland, lesion: malignant tumor, dosed 64 weeks, study length 104 weeks) was 1130 mg/kg/day and the TD50 (strain Sprague-Dawley, females, by gavage, site: mammary tissue, wider than the gland, lesion: several types, types named in the paper, dosed 64 weeks, study length 104 weeks) was 1030 mg/kg/day. It also gave a TD50 (strain Sprague-Dawley, females, inhaled, site: any site (literature study), lesion: malignant tumor, dosed 104 weeks, study length 104 weeks) of 477 mg/kg/day, a TD50 (strain Sprague-Dawley, females, inhaled, site: any site (literature study), lesion: several types, types named in the paper, dosed 104 weeks, study length 104 weeks) of 32.1 mg/kg/day and a TD50 (strain Sprague-Dawley, females, inhaled, site: mammary tissue, wider than the gland, lesion: several types, types named in the paper, dosed 104 weeks, study length 104 weeks) of 37.8 mg/kg/day. For the same compound, the TD50 (strain Sprague-Dawley, males, by gavage, site: any site (literature study), lesion: malignant tumor, dosed 64 weeks, study length 104 weeks) was 935 mg/kg/day.
